Here are results for two compounds from patent US20060270727A1, “Small molecule therapeutics and uses therefor” (priority 2005, published 2006).

Molecules are shown by their SMILES.

The subject of assay [1] is GM15851 normal lymphoid cells. In words: DNA microarray of global gene expression, normal cells. Particulars: for number of genes with affected mRNA levels: P≦0.005. The class given is cell-based, human. How it is done:
Effects of Polyamides on Global Gene Expression. DNA microarray analyses (see Example 10) were performed with RNA isolated from GM15850 FRDA and GM15851 normal lymphoid cells that were either untreated or treated with polyamides FA1 (at 1 and 2 μM) or FA2 (at 2 μM) for 7 days on Affymetrix Human Genome U133 Plus 2.0 GeneChips®. These chips contain […] oligonucleotides representing all or nearly all of the genes in the human genome). Experiments were conducted according to manufacturer guidelines. […] Although more genes were judged affected by FA1 at 1 μM than at 2 μM, this difference is largely due to genes whose mRNA levels change by less than […] in either direction, and thus are not highly significant. At 2 μM FA1, 15 genes were increased in expression by greater than 50% and one gene was decreased by 45%. […] For GM15851 cells, two genes were up regulated by FA1, and no genes were down regulated. (Note that the probability that the genes affected in GM15851 cells would be judged significant by chance at P≦0.005 is 0.8-1.0, based on analysis with BRB ArrayTools). […] Strikingly, binding sites for FA1 (5′-AAGAAGAAG-3′, SEQ ID NO: ______) are present in 18/20 genes whose mRNA levels are increased by 1.2-fold or greater in GM15850 cells, although this sequence would be expected to appear at random only once per 262,000 bp in genomic DNA.
DNA Microarrays. FRDA and control lymphoid cells (i.e., lines GM15850 and GM15851, respectively) were incubated with polyamides FA1 (at 1 or 2 μM) or FA2 (at 2 μM), or in the absence of polyamide, in triplicate for seven days prior to RNA purification and microarray analysis. Affymetrix U133A Plus 2.0 GeneChips® were hybridized in groups of eight for each of the three replicates. Raw GeneChip® data were normalized with RMAExpress (Bolstad et al., 2003, Bioinformatics 19:185-193) and the normalized data was filtered to remove probesets called absent on 24 of 24 chips from class comparisons. The Affymetrix probeset-level data was imported to BRB Arraytools (v3.3.0 Beta 3a) selecting the U133 chips used in the experiment and leaving all filters off. For class comparisons between groups of arrays, unpaired samples were used and the random variance model was selected, with the univariate significance threshold set to 0.005. The restrictions for the univariate test were maintained as the default values of 10 for the maximum number of false discovered genes, 0.1 for the maximum proportion of false discoveries, and a 90% confidence level. Because of poor data correlation in one set of replicates, class comparisons were performed using all chips for the control group versus two of the three replicates for the treatment group (i.e., five groups are the minimum number required for class comparisons).

Assay [2] has as its system sticky DNA in plasmid pRW4886, two tracts of (GAA)176. In words: Sticky DNA disruption, EcoNI digestion and agarose gel. Format: biochemical. Conditions: 37° C., 1 hr. As to the method: Influence of Polyamides on Sticky DNA Conformation. Plasmid pRW4886, which contains two tracts of (GAA)176 (SEQ ID NO: ______) in a direct repeat orientation (Vetcher et al., 2002b, Id)., and forms sticky DNA, was treated with polyamides at concentrations of 0-50 μM at 37° C. for 1 hr. Restriction digestion with EcoNI following the polyamide incubation enabled visualization of the presence or absence of an EcoNI cleaved sticky DNA band that runs with decreased mobility compared to the linearized plasmid on 1% agarose gels. Quantitation was by densitometric analysis using Fluor Chem version 3.04 (Alpha Innotech Corp).
The capacity of sequence-specific polyamides to disrupt the intramolecular sticky DNA structure formed by GAA repeat tracts was investigated. Plasmids harboring the sticky DNA structure are visualized by gel electrophoresis after restriction endonuclease cleavage, by methods well known in the art. […] Plasmid pRW4886, which contains two tracts of (GAA)176 (SEQ ID NO: ______) in a direct repeat orientation (Vetcher et al., 2002b, Id.), was incubated with each of polyamides FA1, FA2, FA3 and FA4 at concentrations ranging from 0-50 μM. The polyamide-bound DNA was then digested with EcoNI and subjected to electrophoresis on 1% agarose gels to determine the amount of EcoNI cleaved sticky DNA retarded band present. Incubation of pRW4886 DNA with FA3 shifted the equilibrium from a maximum amount of sticky DNA to a complete loss of the EcoNI cleaved sticky DNA retarded band at a concentration of 50 nM. […] For FA1, a 1 μM concentration was needed to dissociate the DNA-DNA structure-forming region. […] Since sticky DNA inhibits transcription (Ohshima et al., Id.; Sakamoto et al., 2001, J. Biol. Chem. 276:27171-27177), and since the polyamides destabilize this conformation by shifting the structural equilibrium to duplex B-type DNA, it is highly likely that the increases in frataxin mRNA observed with polyamide FA1 are due to this structural transition.

The test system of assay [3] is frataxin mRNA in GM15850 FRDA lymphoid cell line. The experiment in a line: qRT-PCR of frataxin mRNA, FRDA cell line. The class given is cell-based, human. Particulars: for effect on frataxin mRNA levels, in words: GM15850 FRDA cell line, 7 days incubation. An excerpt:
GAA Specific Polyamides Up Regulate Frataxin mRNA and Protein. To assess whether polyamides alleviate transcription inhibition caused by expanded GAA repeats in the frataxin gene, quantitative real time/reverse transcriptase PCR (qRT-PCR) was used to monitor frataxin mRNA levels in the GM15850 and GM15851 lymphoid cell lines described above; levels of glyceraldehyde 3-phosphate dehydrogenase (GAPDH) mRNA were used as an internal control for each RNA sample; see Example 8. No differences in GAPDH were found between the two cell lines. […] No changes in frataxin mRNA levels were observed on shorter incubation times.
Cell Culture. Epstein Barr virus transformed lymphoblast cell lines GM15850 from a FRDA patient (alleles with 650 and 1030 GAA repeats in the frataxin gene, from the Coriell Cell Repository, Camden, N.J.), and GM15851 from an unaffected sibling (normal range of repeats), were propagated in RMPI 1640 medium with 2 mM L-glutamine and 15% fetal bovine serum at 37° C. in 5% CO2. Cell growth and morphology were monitored by phase contrast microscopy and viability by trypan blue exclusion and an ATP assay (ApoSENSOR™, BioVision). Polyamides were added directly to the culture medium in PBS. Nuclear localization of the polyamides was verified by deconvolution microscopy, by methods well known in the art (see e.g., Dudouet et al., Chem. Biol., 2003, 10: 859-867).
Real-Time Quantitative RT-PCR. Real-time quantitative RT-PCR (qRT-PCR) analysis was performed essentially as previously described (Chuma, et al., 2003, Hepatology 37:198-207), using the following primers for the frataxin gene: […]
RNA was standardized by quantification of GAPDH mRNA (Pattyn et al., 2003, Nucleic Acids Res. 31:122-123), and all values are expressed relative to GAPDH. qRT-PCR was performed using iScript One-Step RT-PCR kit with SYBR green (Biorad). Statistical analysis was performed on three independent quantitative RT-PCR experiments for each RNA sample.
A general note: Quantitative PCR measures a nucleic acid by following its amplification.

As for `CN(C)CCCNC(=O)CCNC(=O)c1nc(NC(=O)CCNC(=O)c2cc(NC(=O)c3nc(NC(=O)CCNC(=O)c4cc(NC(=O)c5nccn5C)cn4C)cn3C)cn2C)cn1C` [FA1, ImPyβImPyβImβDp], in assay [1], the genes down regulated entry is recorded as “no genes” and the genes up regulated result is “two genes”. Further, the “number of genes with affected mRNA levels” value in assay [1] (7 days) is given as “two genes”. The “concentration needed to affect or dissociate sticky DNA” value in assay [2] was determined as 1 µM. Further, in assay [3] (GM15850, 2 μM), the “frataxin mRNA as % of the level in the normal cell line” value is given as not above 45% and the “range of fold increases of frataxin mRNA in numerous experiments” value lay in the range of 2.0 to 3.6 fold. Further, the “increase of frataxin mRNA level” value in assay [3] (GM15850, 2 μM, 7 days, relative to GAPDH) turned out to be 2.5 fold. In addition, the “effect on frataxin mRNA levels, in words” value in assay [3] was “increased frataxin mRNA levels”. The “time for frataxin mRNA to decrease to pre-treatment levels after removal of polyamide” value in assay [3] (after induction 7 days, transfer to fresh medium lacking polyamide) is 96 h. The “effect of higher concentrations or longer incubation on frataxin transcription” value in assay [3] (compared with 2 μM, 7-day incubation) is on record as “Neither higher concentrations of FA1 nor longer incubations times increased frataxin transcription”.
For `CN(C)CCCNC(=O)CCNC(=O)c1cc(NC(=O)CCNC(=O)c2nc(NC(=O)c3nc(NC(=O)CCNC(=O)c4cc(NC(=O)c5nccn5C)cn4C)cn3C)cn2C)cn1C` [FA2, ImPyβImImβPyβDp], the “transcript levels for frataxin (microarray)” value in assay [1] (2 μM, 7 days) is “not changed”. For the same compound, in assay [1] (7 days), the “number of genes with affected mRNA levels” value was “one gene”. Also, in assay [2], the “concentration needed to affect or dissociate sticky DNA” value was more than 100 µM. Also, the “effect on frataxin mRNA levels, in words” value in assay [3] is “modest increase in frataxin transcription”.
